In ChEMBL document CHEMBL1121635 (J Med Chem, 1980):

Columns and labels:
[1] = molecular target: T1, Adrenergic receptor alpha-1 (Rattus norvegicus, UniProt P15823+P23944+P43140)
T1 sequence (P15823 whole entry): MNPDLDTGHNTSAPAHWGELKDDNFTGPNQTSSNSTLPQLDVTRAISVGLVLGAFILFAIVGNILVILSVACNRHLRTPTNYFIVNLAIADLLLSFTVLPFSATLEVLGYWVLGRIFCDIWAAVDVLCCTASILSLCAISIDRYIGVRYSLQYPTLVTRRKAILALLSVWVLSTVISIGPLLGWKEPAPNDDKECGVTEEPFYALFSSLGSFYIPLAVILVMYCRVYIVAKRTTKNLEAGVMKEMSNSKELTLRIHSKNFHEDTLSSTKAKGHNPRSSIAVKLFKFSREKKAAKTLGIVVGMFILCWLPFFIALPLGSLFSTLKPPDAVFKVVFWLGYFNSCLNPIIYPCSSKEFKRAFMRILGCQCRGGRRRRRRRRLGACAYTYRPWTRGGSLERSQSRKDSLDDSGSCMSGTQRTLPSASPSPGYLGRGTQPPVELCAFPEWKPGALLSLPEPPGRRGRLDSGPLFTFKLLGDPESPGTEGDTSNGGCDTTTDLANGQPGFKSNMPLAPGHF
T1 sequence (P23944 whole entry): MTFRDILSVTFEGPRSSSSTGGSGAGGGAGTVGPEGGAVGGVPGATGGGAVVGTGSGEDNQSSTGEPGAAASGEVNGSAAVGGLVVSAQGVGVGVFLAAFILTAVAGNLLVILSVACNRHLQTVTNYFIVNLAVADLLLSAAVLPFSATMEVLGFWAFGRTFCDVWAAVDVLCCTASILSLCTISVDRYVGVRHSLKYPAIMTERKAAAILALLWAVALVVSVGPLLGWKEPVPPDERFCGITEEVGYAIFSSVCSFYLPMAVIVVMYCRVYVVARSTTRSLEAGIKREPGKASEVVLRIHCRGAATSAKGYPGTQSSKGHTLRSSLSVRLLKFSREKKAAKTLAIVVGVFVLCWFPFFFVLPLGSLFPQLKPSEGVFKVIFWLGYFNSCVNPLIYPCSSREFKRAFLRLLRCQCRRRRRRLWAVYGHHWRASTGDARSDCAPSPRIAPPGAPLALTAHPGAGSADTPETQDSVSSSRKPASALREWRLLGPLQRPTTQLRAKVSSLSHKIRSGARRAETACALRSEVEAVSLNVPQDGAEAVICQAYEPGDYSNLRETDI
T1 sequence (P43140 whole entry): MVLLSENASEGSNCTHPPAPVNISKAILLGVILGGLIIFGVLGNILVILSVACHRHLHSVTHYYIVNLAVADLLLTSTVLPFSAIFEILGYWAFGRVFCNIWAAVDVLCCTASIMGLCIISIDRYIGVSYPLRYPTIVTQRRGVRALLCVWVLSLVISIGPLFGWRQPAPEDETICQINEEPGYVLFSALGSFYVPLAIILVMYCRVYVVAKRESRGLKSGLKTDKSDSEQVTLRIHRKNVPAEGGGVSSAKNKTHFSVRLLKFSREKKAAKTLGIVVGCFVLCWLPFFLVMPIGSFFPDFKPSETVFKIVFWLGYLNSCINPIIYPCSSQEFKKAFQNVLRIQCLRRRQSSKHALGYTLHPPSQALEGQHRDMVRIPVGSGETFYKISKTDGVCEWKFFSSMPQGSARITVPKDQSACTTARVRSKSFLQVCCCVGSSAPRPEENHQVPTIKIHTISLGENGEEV
Description: Concentration of compound for 50% displacement of [3H]WB-4101 from Alpha-1 adrenergic receptor of rat brain

Rattus norvegicus [2] = species: Rattus norvegicus; experiment: cells; conditions: Brain, 3 h
Description: (§1) Concentration of compound to inhibit 50% of [3H]-5-HT neurotransmitter uptake in rat brain

Rattus norvegicus [3] = species: Rattus norvegicus
Description: (§2) Concentration of compound to inhibit 50% of [3H]norepinephrine neurotransmitter uptake in rat brain

[4] = molecular target: Muscarinic acetylcholine receptor
Description: Concentration of compound for 50% displacement of [3H]QNB from Muscarinic acetylcholine receptor in rat brain

Rattus norvegicus [5] = species: Rattus norvegicus; remark: listed apart in the source
Description: as §1

Dopamine receptor = experiment: Concentration of compound for 50% displacement of [3H]spiperone from Dopamine receptor in rat brain; type: tissue-based
Rattus norvegicus [6] = species: Rattus norvegicus; experiment: cells; conditions: Brain, 3 h; remark: listed apart in the source
Description: as §2

Row | Compound | IC50 [1] [nM] | IC50 (Rattus norvegicus [2]) [nM] | IC50 (Rattus norvegicus [3]) [nM] | IC50 [4] [nM] | IC50 (Rattus norvegicus [5]) [nM] | IC50 (Dopamine receptor) [nM] | IC50 (Rattus norvegicus [6]) [nM]
1 | CN1CCC2c3cccc4c3N(CC2C1)c1ccccc1CC4 (stereo in doubt) | 445 | 19600 | 3540 | 2240 |  |  | 
2 | CN1CCC2c3cccc4c3N(CC2C1)c1ccccc1CC4 (trans isomer) | 1760 |  | 1250 | 449 | 14200 |  | 
3 | CN(C)CCCN1c2ccccc2CCc2ccccc21 [IMIPRAMINE] |  | 384 |  | 269 |  | 645 | 169
